Laboratory results published in patent publication US20020025296A1, “Combined use of nucleoside analogues and gene transfection for tissue imaging and therapy” (priority 1994, published 2002).
Each block holds one compound with its values, some of them ahead of it.

Columns and labels:
[1] = Stability of the preferred compounds; conditions: comparison among preferred compounds
[2] = Partition coefficients (log P), n-octanol/water, modified shake-flask technique with UV quantitation; assay type: physicochemical; conditions: n-octanol and water (1:1, v/v)
Procedure: Partition coefficients (log P) were measured by determining the distribution of the test compound between a presaturated mixture of n-octanol and water (1:1, v/v). The analytical method consisted of a modified shake-flask technique and ultraviolet (UV) spectrometry quantitation after centrifugal separation of the two phases. The concentration of the test compound in the octanol phase prior to distribution was 0.5 mM. The dihydropyridine chromophore (λmax=360 nm) was used for quantitative UV analysis of IVDU-CDS and IVFRU-CDS, for which the results are shown in Table 1.

[3] = Pseudo-first order oxidation of the 1-methyl-1,4-dihydropyridine-CDS in mouse blood, brain homogenate and liver homogenate; assay type: in vitro ADME; conditions: 37° C.; for k, oxidation rate, brain / t1/2, oxidation, brain: 20% mouse brain homogenate; for k, oxidation rate, blood / t1/2, oxidation, blood: 50% mouse blood
Procedure: Pseudo-first order rate constants and half-lives for the oxidation of IVDU-CDS and IVFRU-CDS were determined in 50% mouse blood, 20% mouse brain homogenate and 20% mouse liver homogenate. A solution of the test compound in DMSO (10 Mm) was added to each matrix and incubated at 37° C. At various times after test compound addition, an aliquot was removed and added to acetonitrile (100 μL). The samples were immediately centrifuged and the supernatant was analyzed by quantitative reverse phase HPLC. The rate of disappearance of the 1-methyl-1,4-dihydropyridine-CDS was determined by UV detection at 360 nm.

[4] = tested on: KBALB-STK cells that express HSV-1 TK; test: In vitro cellular uptake of radiopharmaceuticals in transduced or non-transduced sarcoma cell lines; assay type: cell-based; conditions: KBALB-STK cells relative to KBALB or KBALB-LNL cells, 37° C.
Procedure: The KBALB sarcoma models used in these studies are derived by exposing wild-type KBALB cells to Moloney murine leukemia virus (MMLV) producer cell supernatants containing replication incompetent ecotropic retroviruses. […] These transduced cell lines are cultured in media containing the antibiotic G-418 to select for those cells expressing the neomycin resistance gene.
KBALB-STK, KBALB-LNL, or wild type KBALB cells were grown to confluency in 24 well culture plates. [^125I]-IVDU (sp. act.=12 Gbq/mmol), [^125I]-1VFRU (sp. act.=11 Gbq/mmol), [^131′I]-IVDU-CDS (sp. act.=2.8 Gbq/mmol) or [^131I]-IVFRU-CDS (sp. act.=4.3 Gbq/mmol) were added to each well in 100 μL saline solution and incubated at 37° C. At varying times after exposure to the test compound, the supernatant was removed, the cells rinsed with saline, and the adherent cells were then trypsinized prior to their removal. Cellular uptake -was determined by gamma counting using a Beckmann 8000 gamma counter.

KBALB tumors = test: Biodistribution in mice bearing wild type KBALB tumors; assay type: in vivo; conditions: relative to KBALB-STK tumors
Procedure: (§1) KBALB or KBALB-STK cells (1×10^5 cells) were injected subcutaneously into the flank of male Balb-c mice. Palpable tumors appeared 14 days after injection. [^131I]-IVFRU (370 KBq, sp. act. 59 Gbq/mmol) was injected via the tail vein into each tumor bearing animal. Three animals were sacrificed and dissected at each time interval. The radioactivity uptake by selected tissues of interest were determined using a Beckman 8000 gamma counter. Tissue uptake is expressed as a percentage of the administered dose per gram of tissue versus time in FIGS. 3 and 4. The tumor to blood ratio is presented for both tumor models in FIG. 5.

KBALB-STK tumors [5] = test: Biodistribution in mice bearing KBALB-STK tumors; assay type: in vivo
Procedure: as §1

[6] = tested on: KBALB-STK tumors expressing HSV-1 TK; test: Scintigraphic imaging of KBALB-STK tumors; assay type: in vivo, mice; conditions: 8 hours after administration
Procedure: (§2) BALB-STK cells (1×10^5 cells) were injected subcutaneously into the flank of 12 Balb-c mice. All inoculated animals developed palpable tumors suitable for imaging after 14 days at which time the tumors were approximately 10 mm in diameter. Static images were obtained following injection of 3.7 Mbq of [^131I]-VFRU (sp. act.=252 Gbq/mmol) via the tail vein. Animals were placed in the prone position under a pinhole collimator using a Searle gamma camera (Scintiview) with data manipulated on an ADAC computer (DPS 3300). Images were acquired over 15 minutes using a 256×256 matrix. After initial imaging, a group of animals (n=6) were administered an intraparietoneal (ip) injection of ganciclovir (100 mg/kg) once daily for seven consecutive days. The control group (n=6) received daily saline injections. After four days, the animals were administered [^131I]-IVFRU as described previously and imaging was performed using the same acquisition protocol described above. It was noted that the treatment group tumor size had shrunk to an average size of less than 5 mm. […] The tumors in the saline administered control animals continued to grow until termination of the experiment. […] The scintigram, presented as FIG. 7, is for the same animal 8 hours after [^131I]-IVFRU administration following 4 days of ganciclovir treatment.

HSV-1 TK = HSV-1 TK (Human herpesvirus 1, UniProt P0DTH5); test: Substrate property for the gene expression product HSV-1 TK; assay type: biochemical, herpes simplex virus type 1
Sequence of HSV-1 TK (P0DTH5 whole entry): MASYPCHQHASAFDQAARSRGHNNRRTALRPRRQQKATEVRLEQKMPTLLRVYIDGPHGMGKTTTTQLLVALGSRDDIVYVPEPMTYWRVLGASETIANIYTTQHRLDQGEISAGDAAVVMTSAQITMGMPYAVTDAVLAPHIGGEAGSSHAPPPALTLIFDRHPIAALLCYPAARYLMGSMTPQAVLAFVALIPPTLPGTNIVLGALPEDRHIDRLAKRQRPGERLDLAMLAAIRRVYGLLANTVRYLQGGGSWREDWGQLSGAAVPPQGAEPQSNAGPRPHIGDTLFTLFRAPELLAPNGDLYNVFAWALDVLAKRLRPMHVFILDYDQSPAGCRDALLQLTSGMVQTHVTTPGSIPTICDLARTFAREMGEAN

KBALB-STK tumors [7] = test: Ganciclovir treatment of mice bearing KBALB-STK tumors; assay type: in vivo; conditions: 100 mg/kg ip once daily
Procedure: as §2

SMILES: O=c1[nH]c(=O)n([C@H]2C[C@H](O)[C@@H](CO)O2)cc1/C=C/I [IVDU, (E)-5-(2-iodovinyl)-2′-deoxyuridine]
stability [1]: less stable than IVFRU, IVFAU and IVAU
logP [2]: 1.1

stability [1]: more stable
log P [2]: 1.77
k, oxidation rate, brain [3]: 0.00961 min⁻¹
t1/2, oxidation, brain [3]: 1.2 h
k, oxidation rate, liver ([3]; 20% mouse liver homogenate): 0.01081 min⁻¹
k, oxidation rate, blood [3]: 0.00522 min⁻¹
t1/2, oxidation, blood [3]: 2.22 h
SMILES: CN1C=CCC(C(=O)O[C@H]2C[C@H](n3cc(/C=C/I)c(=O)[nH]c3=O)O[C@@H]2CO)=C1 [IVDU-CDS, (E)-5-(2-iodovinyl)-3′-O-(1-methyl-1,4-dihydropyridyl-3-carbonyl)-2′-deoxyuridine]

SMILES: O=c1[nH]c(=O)n([C@@H]2O[C@H](CO)[C@@H](O)[C@H]2F)cc1/C=C/I [IVFRU, (E)-5-(2-iodovinyl)-2′-fluoro-2′-deoxyuridine]
logP [2]: 1.21

log P [2]: 1.83
k, oxidation rate, brain [3]: 0.0031 min⁻¹
t1/2, oxidation, brain [3]: 3.72 h
k, oxidation rate, liver ([3]; 20% mouse liver homogenate): 0.00531 min⁻¹
t1/2, oxidation, liver ([3]; 20% mouse liver homogenate): 2.17 h
k, oxidation rate, blood [3]: 0.0027 min⁻¹
t1/2, oxidation, blood [3]: 4.27 h
SMILES: CN1C=CCC(C(=O)O[C@H]2[C@@H](F)[C@H](n3cc(/C=C/I)c(=O)[nH]c3=O)O[C@@H]2CO)=C1 [IVFRU-CDS, (E)-5-(2-iodovinyl)-3′-O-(1-methyl-1,4-dihydropyridyl-3-carbonyl)-2′-fluoro-2′-deoxyuridine]

SMILES: O=c1[nH]c(=O)n([C@@H]2O[C@H](CO)[C@@H](O)[C@@H]2F)cc1C=C[125I] [[^125I]-IVFRU]
cellular uptake [4]: selective uptake

SMILES: O=c1[nH]c(=O)n([C@H]2C[C@H](O)[C@@H](CO)O2)cc1C=C[125I] [[^125I]-VDU]
cellular uptake [4]: selective uptake

SMILES: O=c1[nH]c(=O)n(C2OC(CO)C(O)C2F)cc1/C=C/[131I] (stereo not shown) [[^131I]-IVFRU, [^131I]-(E)-5-(2-iodovinyl)-2′-fluoro-2′-deoxyuridine]
tumor/blood ratios (KBALB tumors; all time points): much lower
tumor radioactivity (KBALB tumors): significantly less
peak tumor/blood ratio (KBALB-STK tumors [5]; KBALB-STK tumors, 8 hours post injection, tail vein): approximately 3
tumor uptake (KBALB-STK tumors [5]; tumors expressing HSV-1 TK): Preferential tumor uptake
activity in region of the shrinking tumor remnant (scintigram) ([6]; following 4 days of ganciclovir treatment): relatively devoid of activity
uptake into tumor (scintigram) ([6]; prior to ganciclovir treatment): selective uptake

SMILES: O=c1[nH]c(=O)n([C@@H]2O[C@H](CO)[C@@H](O)[C@H]2F)cc1/C=C/[123I] [^123I-IVFRU]
substrate for HSV-1 TK (HSV-1 TK): substrate

SMILES: Nc1nc(O)c2ncn(COC(CO)CO)c2n1 [ganciclovir]
tumor response (KBALB-STK tumors [7]; after 7 days of treatment, all treated animals): completely regressed
average tumor size (KBALB-STK tumors [7]; after four days, tumors approximately 10 mm at start): less than 5 mm
